Results taken from ChEMBL document CHEMBL3885861, “Open TG-GATES”.

Organism: Rattus norvegicus
Assay: Open TG-GATES - Regimen: Single
Type: toxicity, organism-based, Sprague-Dawley
Parameters: regimen Single, gender Male, age 6 weeks
Conditions: in vivo, po, 30 mg/kg, route gavage, dose level Low; for APTT / Bas / Eos / Fbg / Hb / Ht / Lym / MCH / MCHC / MCV / Mono / Neu / PT / Plat / RBC / Ret / WBC: tissue Blood; for KIDNEY_L / KIDNEY_R / KIDNEY_TOTAL: tissue Kidney; for LIVER: tissue Liver; for A/G / ALP / ALT / AST / BUN / CRE / Ca / Cl / DBIL / GLC / IP / K / LDH / Na / PL / RALB / TBIL / TC / TG / TP / gamma-GTP: tissue Plasma

`CCc1oc2ccccc2c1C(=O)c1cc(I)c(O)c(I)c1` [BENZIODARONE] gave a TERMINAL_BW (3 h) of 212.2 g, an APTT (3 h) of 16.6 s and a Bas (3 h) of 0%. It also gave an Eos (3 h) of 1%, a Fbg (3 h) of 202.4 mg/dL and a Hb (3 h) of 14 g/dL. It also gave a Ht (3 h) of 41.5%, a Lym (3 h) of 74.4% and an MCH (3 h) of 21.7 pg. For the same compound, the MCHC (3 h) was 33.8%, the MCV (3 h) was 64.3 fL and the Mono (3 h) was 10%. For the same compound, the Neu (3 h) was 14.8%, the PT (3 h) was 12 s and the Plat (3 h) was 117.6 x10_4/uL. It also gave an RBC (3 h) of 645.8 x10_4/ul, a Ret (3 h) of 8.1% and a WBC (3 h) of 97.8 x10_2/uL. It also gave a KIDNEY_L (3 h) of 1 g, a KIDNEY_R (3 h) of 1 g and a KIDNEY_TOTAL (3 h) of 2 g. For the same compound, the LIVER (3 h) was 10 g, the A/G (3 h) was 2.1 and the ALP (3 h) was 939.2 IU/L. It also gave an ALT (3 h) of 33.8 IU/L, an AST (3 h) of 66.6 IU/L and a BUN (3 h) of 11 mg/dL. It also gave a CRE (3 h) of 0.5 mg/dL, a Ca (3 h) of 10.6 mg/dL and a Cl (3 h) of 103.4 meq/L. It also gave a DBIL (3 h) of 0 mg/dL, a GLC (3 h) of 192.8 mg/dL and an IP (3 h) of 9.7 mg/dL. For the same compound, the K (3 h) was 4.4 meq/L, the LDH (3 h) was 109.6 IU/L and the Na (3 h) was 141 meq/L. For the same compound, the PL (3 h) was 131.2 mg/dL, the RALB (3 h) was 3.7 g/dL and the TBIL (3 h) was 0.4 mg/dL. The TC (3 h) was 73 mg/dL, the TG (3 h) was 56.8 mg/dL and the TP (3 h) was 5.4 g/dL. For the same compound, the gamma-GTP (3 h) was 2 IU/L, the TERMINAL_BW (6 h) was 213.4 g and the APTT (6 h) was 16.4 s. It also gave a Bas (6 h) of 0%, an Eos (6 h) of 1% and a Fbg (6 h) of 218.2 mg/dL. It also gave a Hb (6 h) of 13.7 g/dL, a Ht (6 h) of 41% and a Lym (6 h) of 82%. The MCH (6 h) was 21.9 pg, the MCHC (6 h) was 33.4% and the MCV (6 h) was 65.6 fL. It also gave a Mono (6 h) of 7.8%, a Neu (6 h) of 9.8% and a PT (6 h) of 12 s. It also gave a Plat (6 h) of 108.5 x10_4/uL, an RBC (6 h) of 625.4 x10_4/ul and a Ret (6 h) of 10.8%. The WBC (6 h) was 102.6 x10_2/uL, the KIDNEY_L (6 h) was 1 g and the KIDNEY_R (6 h) was 1 g. The KIDNEY_TOTAL (6 h) was 1.9 g, the LIVER (6 h) was 9.8 g and the A/G (6 h) was 2.2. It also gave an ALP (6 h) of 728.8 IU/L, an ALT (6 h) of 31 IU/L and an AST (6 h) of 65.6 IU/L. For the same compound, the BUN (6 h) was 11.8 mg/dL, the CRE (6 h) was 0.5 mg/dL and the Ca (6 h) was 10.7 mg/dL. For the same compound, the Cl (6 h) was 105 meq/L, the DBIL (6 h) was 0.03 mg/dL and the GLC (6 h) was 183.4 mg/dL. It also gave an IP (6 h) of 9.8 mg/dL, a K (6 h) of 4.6 meq/L and an LDH (6 h) of 105.2 IU/L. The Na (6 h) was 141.6 meq/L, the PL (6 h) was 130.6 mg/dL and the RALB (6 h) was 3.7 g/dL. For the same compound, the TBIL (6 h) was 0.3 mg/dL, the TC (6 h) was 76.6 mg/dL and the TG (6 h) was 55.2 mg/dL. For the same compound, the TP (6 h) was 5.4 g/dL, the gamma-GTP (6 h) was 1.8 IU/L and the TERMINAL_BW (9 h) was 210.3 g. For the same compound, the APTT (9 h) was 17.9 s, the Bas (9 h) was 0% and the Eos (9 h) was 1%. The Fbg (9 h) was 203.2 mg/dL, the Hb (9 h) was 13.5 g/dL and the Ht (9 h) was 40.3%. It also gave a Lym (9 h) of 76.8%, an MCH (9 h) of 21.7 pg and an MCHC (9 h) of 33.6%. It also gave an MCV (9 h) of 64.5 fL, a Mono (9 h) of 8% and a Neu (9 h) of 14.6%. It also gave a PT (9 h) of 12 s, a Plat (9 h) of 110.8 x10_4/uL and an RBC (9 h) of 624.8 x10_4/ul. For the same compound, the Ret (9 h) was 8.2%, the WBC (9 h) was 78 x10_2/uL and the KIDNEY_L (9 h) was 0.9 g. The KIDNEY_R (9 h) was 1 g, the KIDNEY_TOTAL (9 h) was 1.9 g and the LIVER (9 h) was 9 g. It also gave an A/G (9 h) of 2.2, an ALP (9 h) of 748.4 IU/L and an ALT (9 h) of 28.8 IU/L. The AST (9 h) was 58.6 IU/L, the BUN (9 h) was 11.4 mg/dL and the CRE (9 h) was 0.4 mg/dL. It also gave a Ca (9 h) of 10.4 mg/dL, a Cl (9 h) of 105.4 meq/L and a DBIL (9 h) of 0.086 mg/dL. The GLC (9 h) was 198 mg/dL, the IP (9 h) was 10.4 mg/dL and the K (9 h) was 4.5 meq/L. The LDH (9 h) was 88.4 IU/L, the Na (9 h) was 142.8 meq/L and the PL (9 h) was 129.2 mg/dL. For the same compound, the RALB (9 h) was 3.7 g/dL, the TBIL (9 h) was 0.3 mg/dL and the TC (9 h) was 67.6 mg/dL. The TG (9 h) was 48.6 mg/dL, the TP (9 h) was 5.5 g/dL and the gamma-GTP (9 h) was 0.8 IU/L. For the same compound, the TERMINAL_BW (24 h) was 226.7 g, the APTT (24 h) was 17.3 s and the Bas (24 h) was 0%. It also gave an Eos (24 h) of 1%, a Fbg (24 h) of 206.6 mg/dL and a Hb (24 h) of 13.4 g/dL. It also gave a Ht (24 h) of 39.2%, a Lym (24 h) of 76.4% and an MCH (24 h) of 22.1 pg. It also gave an MCHC (24 h) of 34.2%, an MCV (24 h) of 64.8 fL and a Mono (24 h) of 7.4%. The Neu (24 h) was 15%, the PT (24 h) was 11.9 s and the Plat (24 h) was 117.8 x10_4/uL. The RBC (24 h) was 605 x10_4/ul, the Ret (24 h) was 8.1% and the WBC (24 h) was 94 x10_2/uL. It also gave a KIDNEY_L (24 h) of 1 g, a KIDNEY_R (24 h) of 1 g and a KIDNEY_TOTAL (24 h) of 2 g. It also gave an LIVER (24 h) of 11.1 g, an A/G (24 h) of 2.1 and an ALP (24 h) of 882.8 IU/L. For the same compound, the ALT (24 h) was 34.6 IU/L, the AST (24 h) was 70.8 IU/L and the BUN (24 h) was 17.4 mg/dL. The CRE (24 h) was 0.6 mg/dL, the Ca (24 h) was 10.6 mg/dL and the Cl (24 h) was 104.6 meq/L. For the same compound, the DBIL (24 h) was 0.006 mg/dL, the GLC (24 h) was 197.2 mg/dL and the IP (24 h) was 7.4 mg/dL. The K (24 h) was 4.7 meq/L, the LDH (24 h) was 95.8 IU/L and the Na (24 h) was 141 meq/L. It also gave a PL (24 h) of 138.2 mg/dL, an RALB (24 h) of 3.8 g/dL and a TBIL (24 h) of 0.3 mg/dL. It also gave a TC (24 h) of 73.2 mg/dL, a TG (24 h) of 81.6 mg/dL and a TP (24 h) of 5.6 g/dL. For the same compound, the gamma-GTP (24 h) was 1 IU/L.
